≈ marks a conversion by molar mass, not a printed value. Non-standard residues stand in square brackets, D forms with d. Residues, ends and D or L forms follow the SMILES beside them. No end group written: not given here. Dopa = N[C@@H](Cc1ccc(O)c(O)c1)C(=O)O; AEEA = NCCOCCOCC(=O)O
Assay: Water solubility determined spectroscopically (absorbance at 280 nm)
Assay type: physicochemical
Conditions: direct dissolution of powder in bidistilled water, centrifuged solutions, UV absorbance at 280 nm with calculated ε
Description: Peptide solutions were prepared by direct dissolution of pure powders in bidistilled water. The analytical concentration of solutions was spectroscopically determined by absorbance on a UV–vis Thermo Fisher Scientific Inc. (Wilmington, Delaware, USA) Nanodrop 2000c spectrophotometer equipped with a 1.0 cm quartz cuvette (Hellma) using the molar absorptivity (ε) at 280 nm reported in Table 1. For each peptide, the ε was calculated using the formula ε(280)= [x·5500 + y·1215 + k·2630] [L·cm^–1·mol^–1], where x, y, and k were the numbers of W, Y, and Dopa residues, respectively. […] Hydrogel formation was triggered using the “solvent switch” method, which consists of the addition of water to a peptide stock solution (100 mg/mL in DMSO). The peptide concentration after water addition was 1.0 wt % (10.0 mg/mL).
To deeply investigate the molecular determinant that can positively or negatively affect the aggregation process, herein, we evaluated the impact generated by replacement of the Phe residue with the Trp (W) one. Trp was selected to assess the effect of a more sterically hindered residue containing the heteroaromatic indole group. On the other side, Tyr residues were replaced by Dopa, characterized by the catechol group in place of the phenol one. Using this design, two novel peptides [(WY)3 and (W-Dopa)3] and their N-PEGylated analogues [PEG8-(WY)3 and PEG8-(W-Dopa)3] were designed (Figure 1). The novel sequences were synthesized using a solid-phase approach, according to the Fmoc/tBu protocols on Rink amide MBHA resin. This support allows for obtaining amidation of the C-terminus. Due to the major steric hindrance of the Trp residue, the synthesis of these primary sequences was more difficult than the previously reported ones and required the employment of a DMF/NMP mixture as solvent. After purification, peptides were lyophilized and their identity was assessed by LC-MS (Figures S1–S4 and Table 1). The estimation of the peptide solubility was spectroscopically determined by recording the absorbance spectra (Figure S5) on the centrifuged peptide solutions. […] As expected, peptides derivatized with the PEG moiety are more soluble than their corresponding unPEGylated versions, thus confirming PEGylation as a helpful strategy to improve intrinsic water solubility of all-aromatic sequences.

Molecule | solubility thermodynamic
NC(=O)[C@H](Cc1ccc(O)c(O)c1)NC(=O)[C@H](Cc1c[nH]c2ccccc12)NC(=O)[C@H](Cc1ccc(O)c(O)c1)NC(=O)[C@H](Cc1c[nH]c2ccccc12)NC(=O)[C@H](Cc1ccc(O)c(O)c1)NC(=O)[C@@H](N)Cc1c[nH]c2ccccc12 [(W-Dopa)3] (H-W[Dopa]W[Dopa]W[Dopa]-NH2) | 7610 µg/mL (≈ 6.84 mM)
NCCOCCOCC(=O)NCCOCCOCC(=O)NCCOCCOCC(=O)NCCOCCOCC(=O)N[C@@H](Cc1c[nH]c2ccccc12)C(=O)N[C@@H](Cc1ccc(O)c(O)c1)C(=O)N[C@@H](Cc1c[nH]c2ccccc12)C(=O)N[C@@H](Cc1ccc(O)c(O)c1)C(=O)N[C@@H](Cc1c[nH]c2ccccc12)C(=O)N[C@@H](Cc1ccc(O)c(O)c1)C(N)=O [PEG8-(W-Dopa)3] (H-[AEEA][AEEA][AEEA][AEEA]W[Dopa]W[Dopa]W[Dopa]-NH2) | 15000 µg/mL (≈ 8.86 mM)
NCCOCCOCC(=O)NCCOCCOCC(=O)NCCOCCOCC(=O)NCCOCCOCC(=O)N[C@@H](Cc1c[nH]c2ccccc12)C(=O)N[C@@H](Cc1ccc(O)cc1)C(=O)N[C@@H](Cc1c[nH]c2ccccc12)C(=O)N[C@@H](Cc1ccc(O)cc1)C(=O)N[C@@H](Cc1c[nH]c2ccccc12)C(=O)N[C@@H](Cc1ccc(O)cc1)C(N)=O [PEG8-(WY)3] (H-[AEEA][AEEA][AEEA][AEEA]WYWYWY-NH2) | 3770 µg/mL (≈ 2.29 mM)
WYWYWY-NH2 [(WY)3] | 1150 µg/mL
